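Grown in 96-well plates, cells were treated for 48 hours with each compound at five concentrations. Insufficient inhibition: endpoint recorded as highest concentration tested. Abbreviation: GI50, concentration required for 50% inhibition of growth.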 Calls of active or inactive are those of the source. No stated cut-off is given here; in the data, active = GI50 up to about 1.1 µM and inactive = higher.
What was measured:
Test in all cases: inhibition of tumour cell growth, NCI panel, 48 h
[1] = tested on: CAKI-1
[2] = tested on: KM12
[3] = tested on: OVCAR-4
[4] = tested on: SNB-19
[5] = tested on: HCT-15
[6] = tested on: HCT-116
[7] = tested on: NCI-H226
[8] = tested on: SK-OV-3
[9] = tested on: EKVX
[10] = tested on: MDA-MB-231
[11] = tested on: A549
[12] = tested on: MOLT-4
[13] = tested on: TK-10
[14] = tested on: UACC-62
[15] = tested on: SW-620
[16] = tested on: ACHN
[17] = tested on: SK-MEL-28
[18] = tested on: COLO 205
[19] = tested on: NCI-H23
[20] = tested on: T47D

In the case of `CCC(CCCN)Nc1cc(OC)cc2c(C)ccnc12` (stereo unspecified), the GI50 [1] is reported as 15.5 µM (inactive), the GI50 [2] is reported as 14.9 µM (inactive) and the GI50 [3] is reported as 17.8 µM (inactive). The GI50 [4] was 11.3 µM (inactive), the GI50 [5] was 22.9 µM and the GI50 [6] was 15.9 µM (inactive). For the same compound, the GI50 [7] was 13.3 µM (inactive), the GI50 [8] was 13.6 µM (inactive) and the GI50 [9] was 18.4 µM (inactive). The GI50 [10] was 13.3 µM (inactive), the GI50 [11] was 15.6 µM (inactive) and the GI50 [12] was 15.8 µM (inactive). The GI50 [13] was 17.7 µM (inactive), the GI50 [14] was > 10 µM (inactive) and the GI50 [15] was 20.8 µM (inactive). For the same compound, the GI50 [16] was 18.3 µM (inactive), the GI50 [17] was 16.9 µM (inactive) and the GI50 [18] was 18.2 µM (inactive).

In the case of `Cc1ccc(S(=O)(=O)Nn2c(-c3ccccc3)c(C#N)c(-c3ccc(Cl)cc3)c(C#N)c2=O)cc1`, the GI50 [1] is reported as 55.7 µM (inactive), the GI50 [3] is reported as 38.8 µM (inactive) and the GI50 [4] is reported as 31.2 µM (inactive). For the same compound, the GI50 [5] was 26.9 µM, the GI50 [6] was 18.9 µM (inactive) and the GI50 [8] was 35.4 µM (inactive). The GI50 [10] was 20 µM (inactive), the GI50 [11] was 26.9 µM (inactive) and the GI50 [12] was 18.7 µM (inactive). The GI50 [13] was 38 µM (inactive), the GI50 [14] was 16.1 µM (inactive) and the GI50 [15] was 30.4 µM (inactive). The GI50 [16] was 22 µM (inactive), the GI50 [17] was 24.4 µM (inactive) and the GI50 [18] was 24.5 µM (inactive).

For `CCCCCCCCCCCCCCCC(=O)OCC1CCCN2CCCCC12` (stereo unspecified), the GI50 [1] was > 100 µM (inactive), the GI50 [2] was > 100 µM (inactive) and the GI50 [3] was > 100 µM (inactive). For the same compound, the GI50 [4] was > 100 µM (inactive), the GI50 [5] was > 100 µM and the GI50 [6] was > 100 µM (inactive). The GI50 [7] was > 100 µM (inactive), the GI50 [8] was > 100 µM (inactive) and the GI50 [9] was > 100 µM (inactive). For the same compound, the GI50 [10] was > 100 µM (inactive), the GI50 [11] was > 100 µM (inactive) and the GI50 [12] was > 100 µM (inactive). The GI50 [19] was > 100 µM (inactive), the GI50 [13] was > 100 µM (inactive) and the GI50 [14] was > 100 µM (inactive). For the same compound, the GI50 [15] was > 100 µM (inactive), the GI50 [16] was > 100 µM (inactive) and the GI50 [17] was > 100 µM (inactive). The GI50 [18] was > 100 µM (inactive).

`O=C(CCc1nnc2s/c(=C\c3ccc(Cl)c(Cl)c3)c(=O)n12)Nc1ccc(Cl)c(Cl)c1` was tested, and the GI50 [1] was > 100 µM (inactive), the GI50 [2] was 43.4 µM (inactive) and the GI50 [3] was 73.5 µM (inactive). For the same compound, the GI50 [4] was 45 µM (inactive), the GI50 [5] was > 100 µM and the GI50 [6] was > 100 µM (inactive). The GI50 [7] was > 100 µM (inactive), the GI50 [8] was > 100 µM (inactive) and the GI50 [9] was > 100 µM (inactive). The GI50 [11] was > 100 µM (inactive), the GI50 [12] was 20.7 µM (inactive) and the GI50 [19] was > 100 µM (inactive). For the same compound, the GI50 [13] was > 100 µM (inactive), the GI50 [14] was > 100 µM (inactive) and the GI50 [15] was > 100 µM (inactive). The GI50 [16] was > 100 µM (inactive), the GI50 [17] was > 100 µM (inactive) and the GI50 [18] was 56.6 µM (inactive).

In the case of `Cc1cc(OC2OC(CO)C(O)C(O)C2O)ccc1O` (stereo unspecified), the GI50 [1] is reported as > 100 µM (inactive), the GI50 [2] is reported as > 100 µM (inactive) and the GI50 [3] is reported as > 100 µM (inactive). The GI50 [4] was > 100 µM (inactive), the GI50 [5] was > 100 µM and the GI50 [6] was > 100 µM (inactive). For the same compound, the GI50 [8] was > 100 µM (inactive), the GI50 [9] was > 100 µM (inactive) and the GI50 [10] was > 100 µM (inactive). The GI50 [11] was > 100 µM (inactive), the GI50 [12] was > 100 µM (inactive) and the GI50 [19] was > 100 µM (inactive). The GI50 [13] was > 100 µM (inactive), the GI50 [14] was > 100 µM (inactive) and the GI50 [15] was > 100 µM (inactive). The GI50 [20] was > 100 µM (inactive), the GI50 [16] was > 100 µM (inactive) and the GI50 [17] was > 100 µM (inactive). For the same compound, the GI50 [18] was > 100 µM (inactive).

With `Cc1c(C(=O)O)c2cc3ccccc3cc2c(=O)n1C` the GI50 [2] was > 10 µM (inactive), the GI50 [3] was > 10 µM (inactive) and the GI50 [4] was > 10 µM (inactive). The GI50 [5] was > 10 µM, the GI50 [7] was > 10 µM (inactive) and the GI50 [8] was > 10 µM (inactive). For the same compound, the GI50 [9] was > 10 µM (inactive), the GI50 [10] was > 10 µM (inactive) and the GI50 [11] was > 10 µM (inactive). For the same compound, the GI50 [19] was > 10 µM (inactive), the GI50 [13] was > 10 µM (inactive) and the GI50 [14] was > 10 µM (inactive). For the same compound, the GI50 [15] was > 10 µM (inactive), the GI50 [20] was > 10 µM (inactive) and the GI50 [16] was > 10 µM (inactive).

In the case of `CNC(=O)NCCCCC(NC(C)=O)C(=O)NCc1ccccc1` (stereo unspecified), the GI50 [1] is reported as > 100 µM (inactive), the GI50 [2] is reported as > 100 µM (inactive) and the GI50 [3] is reported as > 100 µM (inactive). The GI50 [4] was > 100 µM (inactive), the GI50 [5] was > 100 µM and the GI50 [6] was > 100 µM (inactive). The GI50 [7] was > 100 µM (inactive), the GI50 [8] was > 100 µM (inactive) and the GI50 [9] was > 100 µM (inactive). The GI50 [11] was > 100 µM (inactive), the GI50 [12] was > 100 µM (inactive) and the GI50 [19] was > 100 µM (inactive). For the same compound, the GI50 [13] was > 100 µM (inactive), the GI50 [14] was > 100 µM (inactive) and the GI50 [15] was > 100 µM (inactive). The GI50 [16] was > 100 µM (inactive), the GI50 [17] was > 100 µM (inactive) and the GI50 [18] was > 100 µM (inactive).

For `CCCCCCCC/C=C(\Br)C(O)C(Br)Br` (stereo unspecified), the GI50 [1] was 19.5 µM (inactive), the GI50 [2] was 19.1 µM (inactive) and the GI50 [3] was 20.6 µM (inactive). For the same compound, the GI50 [4] was 31.8 µM (inactive), the GI50 [5] was 20.6 µM and the GI50 [6] was 27.2 µM (inactive). The GI50 [8] was 26.6 µM (inactive), the GI50 [9] was 28.2 µM (inactive) and the GI50 [10] was 36.8 µM (inactive). The GI50 [11] was 31.4 µM (inactive), the GI50 [12] was > 100 µM (inactive) and the GI50 [19] was 22.1 µM (inactive). For the same compound, the GI50 [13] was 39.4 µM (inactive), the GI50 [14] was 19.3 µM (inactive) and the GI50 [15] was 16.3 µM (inactive). The GI50 [20] was 31 µM (inactive), the GI50 [16] was 22.3 µM (inactive) and the GI50 [17] was 29.2 µM (inactive). The GI50 [18] was 18.9 µM (inactive).
